Reference: patent publication US11465982B2, “Pyridazines” (Boehringer Ingelheim International GmbH, priority 2019, dated 2022)

What was measured:
plasma LPA = assay: Assay C: In Vivo (plasma LPA reduction after oral application to rats); parameters: species or system rat; details: 5 mg/kg, plasma 8 hours post application, vs baseline, sum of LPA 16:0, 18:0, 18:1, 18:2, 20:4
Protocol: The test substance was solubilized in 0.5% natrosol supplemented with 0.015% Tween 80 for oral application to rats at a dose of 5 mg/kg. Blood samples were collected before compound administration and 8 hours post application on ice using EDTA as coagulation agent. Subsequently, plasma was prepared by centrifugation and stored until analysis at −20° C.
LPAs from plasma samples were extracted by using the procedure described by Scherer et al. (Clinical chemistry 2009, 55, 1218-22). 35 μL of heparinized plasma was mixed with 200 μL 40 mM disodium hydrogen phosphate buffer containing 30 mM citric acid (pH 4) and 1 μM 17:0 LPA (internal standard). Subsequently, 500 μL butanol was added and shaken vigorously for 10 min. Samples were centrifuged afterwards at 4000 rpm, 4° C., for 10 min. 500 μL of the organic upper phase was transferred to a fresh 96-deep-well plate and evaporated with a gentle nitrogen flow of 15 psi for 45 min. The resultant residual was dissolved in 100 μL ethanol prior to LC-MS analysis.
LC-MS Method for the Analytic of In Vivo Samples
A Triple Quad 6500 (ABSciex, Toronto, Canada) was equipped with an Agilent 1290 LC system (Agilent, Santa Clara, Calif.) a CTC autosampler and an Atlantis 50×2.1-mm, 3-μm HILIC LC column (Waters, Elstree, UK). Eluent A contained 0.2% formic acid and 50 mM ammonium formate in water, whereas eluent B consisted of 0.2% formic acid in acetonitrile. […] At 1.8 min, solvent B was set back to 95% and stayed constant for 0.7 min for re-equilibration of the column. The following LPA species were monitored (DP: declustering potential and CE: collision energy): 16:0 LPA at 409.2/152.8, DP=−150, CE=−28; 18:0 LPA at 437.3/152.8, DP=−60, CE=−28; 18:1 LPA at 435.2/152.8, DP=−40, CE=−28; 18:2 LPA at 433.2/152.8, DP=−150, CE=−28; 20:4 LPA at 457.2/152.8, DP=−100, CE=−29 and 17:0 LPA at 423.5/152.8, DP=−100, CE=−36. LPA depletion in percent was calculated based on the baseline LPA levels before test compound application. The sum of LPA refers to the species 16:0; 18:0; 18:1; 18:2 and 20:4

ATX in human whole blood = ATX in human whole blood (Homo sapiens (Human), UniProt Q13822); assay: Assay B: Whole-Blood ATX Assay; assay type: biochemical; details: 1 h at 37° C., formation of 18:2 LPA
Protocol: 45 μL human whole-blood was supplemented with 5 μL of the test compound, dissolved in phosphate-buffered saline (concentration range 0.12 nM-100 μM). This mixture was incubated for 1 h at 37° C. and stopped by addition of 100 μL 40 mM disodium hydrogen phosphate buffer containing 30 mM citric acid (pH 4) and 1 μM 17:0 LPA (internal standard). LPA was extracted by addition of 500 μL 1-butanol, followed by 10-min centrifugation at 4000 rpm, 4° C. Prom the resultant organic supernatant, a 200 μL aliquot was transferred into a 96-deep-well plate and transferred to the RapidPire-based MS/MS measurement.
The RapidPire autosampler was coupled to a binary pump (Agilent 1290) and a Triple Quad 6500 (ABSciex, Toronto, Canada). This system was equipped with a 10-μL loop, 5-μL Waters Atlantis HILIC cartridge (Waters, Elstree, UK), 90% acetonitrile containing 10 mM ammonium acetate as eluent A and 40% acetonitrile containing 10 mM ammoniumacetate as eluent B. For details see (Bretschneider et al., SLAS Discovery, 2017, 22, 425-432). The MS was operated in negative mode with a source temperature of 550° C., curtain gas=35, gas 1=65, and gas 2=80. The following transitions and MS parameters (DP: declustering potential and CE: collision energy) for the respective LPAs were determined: 18:2 LPA at 433.2/152.8, DP=−150, CE=−27 and 17:0 LPA at 423.5/152.8, DP=−100.
The formation of 18:2 LPA was monitored and evaluated as ratio to 17:0 LPA.

Human ATX = Human ATX (Homo sapiens (Human), UniProt Q13822); assay: Assay A: Biochemical ATX Assay; details: 5 nM recombinant ATX, 18:1 LPC substrate, 2-h incubation at room temperature, formation of 18:1 LPA
Protocol: 5 nM recombinant ATX (Cayman Chemicals) was supplemented to 50 mM Tris buffer (pH 8.0) containing 3 mM KCl, 1 mM CaCl2, 1 mM MgCl2 0.14 mM NaCl, and 0.1% bovine serum albumin. Test compounds were dissolved in DMSO and tested in the range of 0.1 nM to 10 μM. The enzymatic reaction (22.5 μL) was started by addition of 2.5 μL 10 μM 18:1 LPC (Avanti Lipids, Alabaster, Ala., USA). After 2-h incubation at room temperature, the reaction was stopped by addition of 20 μL water containing 500 nM 20:4 LPA as internal standard and 100 μL 1-butanol for extracting LPA. Subsequently, the plates were centrifuged at 4000 rpm, 4° C., for 2 min. The resultant upper butanol phase was directly used for injection at a RapidFire system (Agilent).
The RapidFire autosampler was coupled to a binary pump (Agilent 1290) and a Triple Quad 6500 (ABSciex, Toronto, Canada). This system was equipped with a 10-μL loop, 5-μL Waters Atlantis HILIC cartridge (Waters, Elstree, UK), 90% acetonitrile containing 10 mM ammonium acetate as eluent A and 40% acetonitrile containing 10 mM ammoniumacetate as eluent B. For details see (Bretschneider et al., SLAS Discovery, 2017). 1 The MS was operated in negative mode with a source temperature of 550° C., curtain gas=35, gas 1=65, and gas 2=80. The following transitions and MS parameters (DP: declustering potential and CE: collision energy) for the respective LPAs were determined: 18:1 LPA at 435.2/152.8, DP=−40, CE=−28 and 20:4 LPA at 457.2/152.8, DP=−100, CE=−27).
The formation of 18:1 LPA was monitored and evaluated as ratio to 20:4 LPA.

| SMILES | LPA reduction at 8 h (plasma LPA) [%] | IC50 (ATX in human whole blood) [nM] | IC50 (Human ATX) [nM] |
| --- | --- | --- | --- |
| CC(=O)N1CCC2(CC1)CN(c1ccc(CNC(=O)C3(c4ccc(OCc5ccc(C(F)(F)F)nc5)nn4)CC3)cc1)C2 [Example 1.1, N-(4-(7-acetyl-2,7-diazaspiro[3.5]nonan-2-yl)benzyl)-1-(6-((6-(trifluoromethyl)pyridin-3-yl)methoxy)pyridazin-3-yl)cyclopropane-1-carboxamide] | 93.7 | 3.1 | 4 |
| CN1CC2(CC1=O)CN(c1ccc(CNC(=O)C3(c4ccc(OCc5ccc(C(F)F)nc5)nn4)CC3)cc1)C2 [Example 1.2] | 90.6 | 2.4 | 3.5 |
| CC(=O)N1CCC2(CC1)CN(c1ccc(CNC(=O)C3(c4ccc(OCc5ccc(C(F)F)nc5)nn4)CC3)cc1)C2 [Example 1.3] | 95.0 | 2.8 | 3.7 |
| CC(=O)N1CC2(C1)CN(c1ccc(CNC(=O)C3(c4ccc(OCc5ccc(C(F)F)nc5)nn4)CC3)cc1)C2 [Example 1.4] | 98.2 | 3.1 | 4 |
| CC(=O)N1CCN(c2ccc(CNC(=O)C3(c4ccc(OCc5ccc(C(F)(F)F)nc5)nn4)CC3)c(F)c2)CC1 [Example 1.5] |  | 4.2 | 3.8 |
| CC(=O)N1CCN(c2ccc(CNC(=O)C3(c4ccc(OCc5ccc(C(F)(F)F)nc5)nn4)CC3)cc2F)CC1 [Example 1.6] |  | 4.7 | 2.4 |
| CN1CC2(CC1=O)CN(c1ccc(CNC(=O)C3(c4ccc(OCc5ccc(C(F)(F)F)nc5)nn4)CC3)cc1)C2 [Example 1.7] |  | 5.7 | 8.9 |
| CC(=O)N1CC2(CCN(c3ccc(CNC(=O)C4(c5ccc(OCc6ccc(C(F)F)nc6)nn5)CC4)cc3)C2)C1 [Example 1.8] | 78.2 | 7.3 | 4.1 |
| CN1C(=O)NCC12CCN(c1ccc(CNC(=O)C3(c4ccc(OCc5ccc(C(F)F)nc5)nn4)CC3)cc1)CC2 [Example 1.9] |  | 9.4 | 4.5 |
| O=C1CCCN1C1CCN(c2ccc(CNC(=O)C3(c4ccc(OCc5ccc(C(F)(F)F)nc5)nn4)CC3)cc2)CC1 [Example 1.10] |  | 7 | 2.4 |
| CC(=O)N1CCC12CN(c1ccc(CNC(=O)C3(c4ccc(OCc5ccc(C(F)(F)F)nc5)nn4)CC3)cc1)C2 [Example 1.11] |  | 10 | 2.6 |
| CC(=O)N1CCN(c2ccc(CNC(=O)C3(c4ccc(OCc5ccc(C(F)(F)F)nc5)nn4)CC3)cc2)CC1 [Example 1.12] | 83.9 | 10.2 | 4.3 |
| CN1C(=O)NCC12CCN(c1ccc(CNC(=O)C3(c4ccc(OCc5ccc(C(F)(F)F)nc5)nn4)CC3)cc1)CC2 [Example 1.13] |  | 10.5 | 2.8 |
| CC(=O)N1CCC2(C1)CN(c1ccc(CNC(=O)C3(c4ccc(OCc5ccc(C(F)(F)F)nc5)nn4)CC3)cc1)C2 [Example 1.14] |  | 11.1 | 4.9 |
| CC(=O)N1CCN(c2ccc(CNC(=O)C3(c4ccc(OCc5ccc(C(F)(F)F)nc5)nn4)CC3)cc2C(F)(F)F)CC1 [Example 1.15] |  | 11.8 | 2 |
| CC(=O)N1CCN(c2ccc(CNC(=O)C3(c4ccc(OCc5ccc(C(F)F)nc5)nn4)CC3)cc2)CC1 [Example 1.16] | 95.5 | 5.4 | 3.4 |

| SMILES | LPA reduction at 8 h (plasma LPA) [%] | IC50 (ATX in human whole blood) [nM] | IC50 (Human ATX) [nM] |
| --- | --- | --- | --- |
| CC(=O)N1CC2(C1)CN(c1ccc(CNC(=O)C3(c4ccc(OCc5ccc(C(F)(F)F)nc5)nn4)CC3)cc1)C2 [Example 1.17] | 96.9 | 6.5 | 2.2 |
| CC(=O)N1CC2CC1CN2c1ccc(CNC(=O)C2(c3ccc(OCc4ccc(C(F)(F)F)nc4)nn3)CC2)cc1 (centres unmarked) [Example 1.18] |  | 10.8 | 3.2 |
| CC(=O)N1CCN(c2ccc(CNC(=O)C3(c4ccc(OCc5ccc(C(F)(F)F)nc5)nn4)CC3)cc2)CC1(C)C [Example 1.19] |  | 8.3 | 2.2 |
| CC(=O)N1CCN(c2ccc(CNC(=O)C3(c4ccc(OCc5ccc(C(F)(F)F)nc5)nn4)CC3)cc2)C(C)(C)C1 [Example 1.20] |  | 6.7 | 4 |
| CC(=O)N1CC2(C1)CN(c1ccc(CNC(=O)C3(c4ccc(OCc5ccc(C(F)(F)F)nc5)nn4)CC3)cc1F)C2 [Example 1.21] | 93.8 | 2.9 | 4.4 |
| CC(=O)N1CCN(c2ccc(CNC(=O)C3(c4ccc(OCc5ccc(C(F)F)nc5)nn4)CC3)c(C(F)(F)F)c2)CC1 [Example 1.22] |  | 2.5 | 2.5 |
| CC(=O)N1CCN(c2ccc(CNC(=O)C3(c4ccc(OCc5ccc(C(F)(F)F)nc5)nn4)CC3)c(C(F)(F)F)c2)CC1 [Example 1.23] |  | 4.9 | 3.6 |
| CC(=O)N1C[C@@H]2CN(c3ccc(CNC(=O)C4(c5ccc(OCc6ccc(C(F)F)nc6)nn5)CC4)cc3)C[C@@H]2C1 [Example 1.24] |  | 4.6 | 3.8 |
| CC(=O)N1C[C@@H]2CN(c3ccc(CNC(=O)C4(c5ccc(OCc6ccc(C(F)(F)F)nc6)nn5)CC4)cc3)C[C@@H]2C1 [Example 1.25] |  | 12.4 | 3.2 |
| CC(=O)N1CC2(C1)CN(c1ccc(CNC(=O)C3(c4ccc(OCc5ccc(C(F)F)nc5)nn4)CC3)cc1F)C2 [Example 1.26] |  | 3.9 | 4.1 |
| CC(=O)N1CCN(c2ccc(CNC(=O)C3(c4ccc(OCc5ccc(C(F)F)nc5)nn4)CC3)cn2)CC1 [Example 1.27] |  | 12.1 |  |
| CC(=O)N1CCC2(CC1)CN(c1ccc(CNC(=O)C3(c4ccc(OCc5ccc(C(F)(F)F)nc5)nn4)CC3)nc1)C2 [Example 1.28] |  | 6.4 | 3.2 |
| CC(=O)N1CCC2(CC1)CN(c1ccc(CNC(=O)C3(c4ccc(OCc5ccc(C(F)F)nc5)nn4)CC3)nc1)C2 [Example 1.29] |  | 5.1 | 5.2 |
| CC(=O)N1CCC2(CC1)CN(c1ccc(CNC(=O)C3(c4ccc(OCc5ccc(C(F)(F)F)nc5)nn4)CC3)cn1)C2 [Example 1.30] |  | 15.5 | 3.4 |
| CC(=O)N1CCC(c2ccc(CNC(=O)C3(c4ccc(OCc5ccc(C(F)(F)F)nc5)nn4)CC3)cc2)CC1 [Example 1.31] |  | 10.7 | 3.4 |
| CCc1nc2c(C)cc(N3CCN(CC(=O)N4CC(O)C4)CC3)cn2c1N(C)c1nc(-c2ccc(F)cc2)c(C#N)s1 [Example 2 in WO2014/139882, reference compound] | 58.1 |  |  |
